Measurements from paper PMC5107945, “Abscinazole-E3M, a practical inhibitor of abscisic acid 8′-hydroxylase for improving drought tolerance” (Scientific Reports, 2016).

How the values were obtained:
[1] = target: T1, Rice recombinant CYP701A6 (ent-kaurene oxidase) (Oryza sativa subsp. japonica, UniProt Q5Z5R4); assay: CYP701A6 inhibition assay (formation of end product KA); assay type: biochemical; settings: Rice recombinant CYP701A6 expressed in insect cells; 10 μM ent-kaurene; formation of KA; read-out: CYP701A IC50
T1 construct: made in house; host or cells: insect cells (baculovirus vector)
T1 sequence (Q5Z5R4 1-505): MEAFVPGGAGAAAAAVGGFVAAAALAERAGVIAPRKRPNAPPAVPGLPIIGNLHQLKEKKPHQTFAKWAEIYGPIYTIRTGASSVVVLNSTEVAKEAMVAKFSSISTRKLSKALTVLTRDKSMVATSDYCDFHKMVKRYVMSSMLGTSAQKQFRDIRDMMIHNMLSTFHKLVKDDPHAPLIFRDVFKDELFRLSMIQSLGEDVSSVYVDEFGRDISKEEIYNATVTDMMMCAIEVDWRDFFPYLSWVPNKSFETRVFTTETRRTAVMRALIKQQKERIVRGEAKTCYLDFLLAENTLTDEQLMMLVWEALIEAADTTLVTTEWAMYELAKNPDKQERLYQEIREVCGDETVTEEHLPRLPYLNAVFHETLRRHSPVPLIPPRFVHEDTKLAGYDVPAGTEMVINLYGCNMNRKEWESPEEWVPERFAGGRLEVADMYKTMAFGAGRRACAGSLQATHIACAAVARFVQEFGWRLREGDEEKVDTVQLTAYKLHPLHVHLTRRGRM
Method: To evaluate the enzymatic selectivity between CYP707A and CYP701A, we examined the inhibitory activity against recombinant rice containing CYP701A6 expressed in insect cells using a baculovirus vector. This enzyme catalyses all three steps to KA via the corresponding alcohol and aldehyde, and consequently, the kinetic analysis is very complicated. Therefore, we evaluate the IC50 value for the formation of the end product, KA, instead of the KI value.
Reaction mixtures, containing 0.058 μM of […] microsomes, ATR2 (0.115 U), ent-kaurene (final concentration of 10 μM), inhibitors (0 for control, 1.5–1,500 μM in 8 μL dimethylformamide), and 20 mM NADPH in 500 mM potassium phosphate buffer (pH 7.4), were incubated at 30 °C for 10 min. Reactions were initiated by adding NADPH and stopped by the addition of 100 μL of 1 M HCl. Abietic acid, as the internal standard, was then added to the reaction product, which was extracted with EtOAc (400 μL × 3). The organic phase was dried over Na2SO4 and concentrated in vacuo. To derivatize the reaction products, MeOH (50 μL) and trimethylsilyldiazomethane (2 M in 5 μL hexane) were added, and the reaction mixture was incubated at room temperature for 10 min. The organic solvent was removed under N2, and samples were adjusted to 150 μL with hexane before a gas chromatography-mass spectrometry analysis (QP2010-plus; Shimadzu Corp., Kyoto, Japan). The conditions were as follows: the column was DB-5ms (0.25 mm id × 15 m, 0.25 μm film thickness; Agilent J & W, Folsom, CA, USA), the carrier gas was He, the flow rate was 1.65 mL min^−1, the injection port temperature was 280 °C, splitless injection, and the programmed column temperature was a step gradient of 80 °C for 1 min, 80–200 °C at 18 °C min^−1, 200–210 °C at 2 °C min^−1, 210–280 °C at 30 °C min^−1, and then 280 °C for 3 min. The KA content was calculated from the area ratio of molecular and fragment ions of methyl KA (m/z 316, 273, and 257) to those of methyl abietate (m/z 316 and 256). The inhibition ratio was defined as [(A − B)/A] × 100, where A = the amount of methyl KA/methyl abietate when the inhibitor was absent from the reaction mixture (control), and B = the amount of methyl KA/methyl abietate when the inhibitor was present. All of the tests were conducted at least three times.

[2] = system: Arabidopsis drought tolerance; assay: Arabidopsis drought tolerance analysis; assay type: in vivo; settings: 50 μM spray, water withheld 12 days, then rehydrated
Method: (§1) The effects of (-)-Abz-[…] were also determined relative to stomatal apertures. Arabidopsis grown in soil pots underwent moderate drought stress under the optimal growth conditions of 22 °C and 60% relative humidity. Under these growth conditions, the leaf surface temperature of the mock-treated controls was 19.5 °C, which was lower than the surrounding atmospheric temperature because of transpirational water loss (Fig. 6a,b)[30]. […] Finally, we examined the effects of (-)-Abz-[…] on drought tolerance under more practical conditions. Three-week-old Arabidopsis were sprayed with an aqueous solution containing 50 μM (-)-Abz-[…]. Water was not supplied for 12 days, and then the plants were rehydrated. […] We also tested the effects of (-)-Abz-[…] on a monocot crop, maize, to evaluate whether (-)-Abz-[…] affected stomatal movement and enhanced ABA response across plant species. […] Thus, the effects of (-)-Abz-[…] were not restricted to the model plant Arabidopsis. Figure 6 Effects of (-)-Abz-[…] on Arabidopsis drought tolerance. (a,b) Three-week-old plants were treated with 50 μM of (-)-Abz-[…] and incubated overnight at 22 °C with 60% relative humidity. Thermal images of plants were obtained using a thermal imaging camera ([…], Nippon Avionics Co., Ltd.), and the average temperatures on leaf surfaces were determined with NS9200 software (n = 5, error bars represent s.d.). […]

[3] = system: Arabidopsis stomata / leaf surface temperature; assay: Thermal imaging and stomatal aperture in Arabidopsis; assay type: in vivo
Method: The effects of (-)-Abz-[…] were also determined relative to stomatal apertures. Arabidopsis grown in soil pots underwent moderate drought stress under the optimal growth conditions of 22 °C and 60% relative humidity. Under these growth conditions, the leaf surface temperature of the mock-treated controls was 19.5 °C, which was lower than the surrounding atmospheric temperature because of transpirational water loss (Fig. 6a,b)[30]. […] Finally, we examined the effects of (-)-Abz-[…] on drought tolerance under more practical conditions. Three-week-old Arabidopsis were sprayed with an aqueous solution containing 50 μM (-)-Abz-[…]. Water was not supplied for 12 days, and then the plants were rehydrated. […] We also tested the effects of (-)-Abz-[…] on a monocot crop, maize, to evaluate whether (-)-Abz-[…] affected stomatal movement and enhanced ABA response across plant species. […] Thus, the effects of (-)-Abz-[…] were not restricted to the model plant Arabidopsis. Figure 6 Effects of (-)-Abz-[…] on Arabidopsis drought tolerance. (a,b) Three-week-old plants were treated with 50 μM of (-)-Abz-[…] and incubated overnight at 22 °C with 60% relative humidity. Thermal images of plants were obtained using a thermal imaging camera ([…], Nippon Avionics Co., Ltd.), and the average temperatures on leaf surfaces were determined with NS9200 software (n = 5, error bars represent s.d.). Representative images are shown in (a). (c) Stomatal apertures after the application of 50 μM (-)-Abz-[…]. After an overnight incubation, plants were placed at 22 °C with ~90% relative humidity for 1 h. Stomatal images were obtained using Suzuki's universal micro-printing method. […] (d) Effects of (-)-Abz-[…] on endogenous ABA levels. Four-week old plants grown in soil pots were treated with 50 μM (-)-Abz-[…], and leaves were harvested after an overnight incubation. Values are means with s.d. (n = 6). (e) Four-week-old plants were subjected to drought stress by withholding water. […]

[4] = system: endogenous ABA level; assay: Endogenous ABA levels in Arabidopsis; assay type: in vivo; settings: Arabidopsis four-week-old plants, 50 μM, overnight
Method: as §1

## abscinazole-E3M [(−)-6]
[1]
  IC50: 780 nM
[2]
  Drought tolerance and survival: induced significant drought tolerance and increased the survival rate
[3]; 50 μM spray, overnight
  Transpirational water loss: reduced the water loss
[3]; 50 μM spray, overnight, 22 °C, 60% relative humidity
  Leaf surface temperature: increased leaf temperatures
[3]; 50 μM, overnight then ~90% relative humidity 1 h
  Stomatal aperture: led to stomatal closure
[4]
  Endogenous ABA content: significantly increase the ABA content
